Several values for one entry are separate records, joined by “and”; a condition that tells them apart may be missing. Equal values may be shown once.
Legend:
[1] = Stability of POMs in nutrient mixture F-12 Ham by NMR; assay type: physicochemical
Experimental: To better mimic biological membranes, which contain negatively charged components and cholesterol, equivalent transport experiments were performed in anionic liposomes^[ [19], [20] ^] with the prototypal POM carriers, [PVW11]^4‒ and [SiMoW11]^4‒ . […] This encouraged us to transfer the experiments to CHO‐K1 (Chinese hamster ovary) cells, after we had confirmed sufficient stability of the most promising POM carriers, [PVW11]^4‒ and [SiMoW11]^4‒ , in the cellular nutrient mixture (F‐12 Ham's medium, Figures S26–S28C, Supporting Information).
Table S9. Results of stability investigation by NMR spectroscopy.
11 product, presumably [SiIVWVI12O40]4–) […]
product, presumably [SiIVWVI12O40]4–)
[AlW ]5‒ freshly prepared
[GeAlW ]5‒ freshly prepared […]
prepared ‒13.7; ‒14.7 intermediate anions
Stability of [PVW11]4‒ in 10 mM Mes buffer pH 5.5: 31P NMR studies were firstly performed on 3 mM solutions of [α-PVVVWVI11O40]4‒ in 10 mM Mes buffer pH 5.5 (Figure S25). The 31P NMR recorded immediately ([…]), one day (Figure S25B), and five days (Figure S25C) after solution preparation display the same signals that can be attributed to the intact [α-PVVVWVI11O40]4‒ (‒14.9 ppm) and the monolacunary [α-PVWVI11O40]7‒ (‒10.8 ppm) species formed upon partial hydrolysis. […]
Figure S24. 31P (A) and 51V (B) NMR spectra of 3 mM solutions of [PVW11]4‒ recorded in D2O. […]

[2] = system: polyarginine; assay: ITC, POM into polyarginine; assay type: binding; conditions: 10 mM Tris, pH 7.4, value is Ka divided by 10^7
Experimental: (§1) All experiments were performed with a VP‐ITC MicroCalorimeter from MicroCal, Int,. at atmospheric pressure and 298.15 K. Solutions were degassed and thermostatic prior to the titration experiments in a ThermoVac accessory. A constant volume of POM ([PVW11]^4‒ or [SiMoW11]^4‒) (10 µL per injection) was injected into the oligopeptide solution (heptaArg, protamine, polyArg or heptaLys) in 10 mM Tris, pH 7.4 to determine the apparent binding affinity of [PVW11]^4‒ and [SiMoW11]^4‒ with the oligopeptides. Dilution heats were determined by titration of the POM into buffer and subtracted from the reaction heat. The neat reaction heat was fitted with Origin 7.0 software by using the “one‐set‐of‐sites” model to obtain the complex stability constant (K a) and molar reaction enthalpy (∆H°). The free energy (∆G°) and entropy changes (∆S°) were obtained according to the relation: ∆G° = −RTlnK a = ∆H°−T∆S°.
4. Supramolecular interactions
Figure S10. Microcalorimetric titrations in 10 mM Tris, pH 7.4: Raw ITC data (top) for the sequential injections of POM solution into an oligoarginine solution, and apparent reaction heats (bottom) obtained from the integration of the calorimetric traces. […]
values and ± 0.5 kcal mol‒1 for ΔH and TΔS (duplicate measurements). Note that none of these interactions lead to any precipitation or aggregates, confirmed by the absence of any detectable signal by DLS. […]

[3] = system: heptalysine; assay: ITC, POM into heptalysine; assay type: binding; conditions: 10 mM Tris, pH 7.4, value is Ka divided by 10^7
Experimental: as §1
Figure S11. Microcalorimetric titrations in 10 mM Tris, pH 7.4: Raw ITC data (top) for the sequential injections of POM solution into a heptalysine solution, and apparent reaction heats (bottom) obtained from the integration of the calorimetric traces. POM/heptalysine concentrations in µM: a, 200/8 and b, 150/10. Error data is 5% for the n values and ± 0.5 kcal mol‒1 for ΔH and TΔS (duplicate […]
Table S6. […]

Substance | % parent anion, nutrient mixture F-12 Ham freshly prepared ([1]; 3 mM POM, F-12 Ham pH 7.4, 31P NMR integration) | Ka/ 107, polyarginine [2] | Ka/ 107, heptalysine [3] | % parent anion, F-12 Ham after 1 h at 37 °C (183W NMR) ([1]; 10 mM POM, F-12 Ham (final pH 5.7), 183W NMR signal intensities)
K4[α‐P^VV^VW^VI 11O40]·4H2O [[PVW11]^4‒] | 43% | 3.5 M‒1 | 2.8 M‒1 | –
K4[α‐Si^IVMo^VIW^VI 11O40]·24H2O [[SiMoW11]^4‒] | – | 1.6 M‒1 | 4.1 M‒1 | 50% and ~ 50%

— article PMC11475408, “All‐Inorganic Polyoxometalates Act as Superchaotropic Membrane Carriers” (Advanced Materials (Deerfield Beach, Fla.), 2023)
